Test results as given in ChEMBL document CHEMBL3785084, “Rational modification of the lead molecule: Enhancement in the anticancer and dihydrofolate reductase inhibitory activity” (Bioorg Med Chem Lett, 2016).

What was measured:
[1] = cells; settings: Homo sapiens, OVCAR-3, 48 h; for CC50: read-out: LC50
Description: Cytotoxicity against human OVCAR3 cells after 48 hrs by sulforhodamine B assay

[2] = test system: EKVX; assay: cells; settings: Homo sapiens, 48 h; for CC50: read-out: LC50
Description: Cytotoxicity against human EKVX cells after 48 hrs by sulforhodamine B assay

[3] = cells; settings: Homo sapiens, SF-295, 48 h; for CC50: read-out: LC50
Description: Cytotoxicity against human SF295 cells after 48 hrs by sulforhodamine B assay

[4] = test system: NCI-H23; assay: cells; settings: Homo sapiens, NCI-H23, 48 h; for CC50: read-out: LC50
Description: Cytotoxicity against human NCI-H23 cells after 48 hrs by sulforhodamine B assay

[5] = test system: SR; assay: Cytotoxicity against human SR cells after 48 hrs by sulforhodamine B assay; format: functional; settings: for CC50: read-out: LC50 (the source's name)
[6] = cells; settings: Homo sapiens, RXF 393, 48 h; for CC50: read-out: LC50
Description: Cytotoxicity against human RXF393 cells after 48 hrs by sulforhodamine B assay

[7] = cells; settings: Homo sapiens, IGROV-1, 48 h; for CC50: read-out: LC50
Description: Cytotoxicity against human IGROV1 cells after 48 hrs by sulforhodamine B assay

[8] = test system: MCF7; assay: cells; settings: Homo sapiens, MCF7, 48 h
Description: Cytotoxicity against human MCF7 cells after 48 hrs by sulforhodamine B assay

[9] = cells; settings: Homo sapiens, SW-620, 48 h; for CC50: read-out: LC50
Description: Cytotoxicity against human SW620 cells after 48 hrs by sulforhodamine B assay

[10] = cells; settings: Homo sapiens, UO-31, 48 h; for CC50: read-out: LC50
Description: Cytotoxicity against human UO31 cells after 48 hrs by sulforhodamine B assay

[11] = cells; settings: Homo sapiens, HL-60, 48 h; for CC50: read-out: LC50
Description: Cytotoxicity against human HL-60(TB) cells after 48 hrs by sulforhodamine B assay

[12] = test system: U-251; assay: cells; settings: Homo sapiens, U-251, 48 h; for CC50: read-out: LC50
Description: Cytotoxicity against human U251 cells after 48 hrs by sulforhodamine B assay

[13] = test system: K562; assay: cells; settings: Homo sapiens, K562, 48 h; for CC50: read-out: LC50
Description: Cytotoxicity against human K562 cells after 48 hrs by sulforhodamine B assay

[14] = test system: HT-29; assay: cells; settings: Homo sapiens, HT-29, 48 h; for CC50: read-out: LC50
Description: Cytotoxicity against human HT-29 cells after 48 hrs by sulforhodamine B assay

[15] = cells; settings: Homo sapiens, DU-145, 48 h; for CC50: read-out: LC50
Description: Cytotoxicity against human DU145 cells after 48 hrs by sulforhodamine B assay

[16] = cells; settings: Homo sapiens, SK-OV-3, 48 h; for CC50: read-out: LC50
Description: Cytotoxicity against human SKOV3 cells after 48 hrs by sulforhodamine B assay

[17] = test system: SN12C; assay: cells; settings: Homo sapiens, 48 h; for CC50: read-out: LC50
Description: Cytotoxicity against human SN12C cells after 48 hrs by sulforhodamine B assay

[18] = cells; settings: Homo sapiens, MOLT-4, 48 h; for CC50: read-out: LC50
Description: Cytotoxicity against human MOLT4 cells after 48 hrs by sulforhodamine B assay

[19] = cells; settings: Homo sapiens, COLO 205, 48 h
Description: Cytotoxicity against human COLO205 cells after 48 hrs by sulforhodamine B assay

[20] = test system: MDA-MB-231; assay: cells; settings: Homo sapiens, MDA-MB-231, 48 h; for CC50: read-out: LC50
Description: Cytotoxicity against human MDA-MB-231 cells after 48 hrs by sulforhodamine B assay

[21] = test system: T47D; assay: cells; settings: Homo sapiens, 48 h
Description: Cytotoxicity against human T47D cells after 48 hrs by sulforhodamine B assay

[22] = test system: Malme-3M; assay: cells; settings: Homo sapiens, 48 h; for CC50: read-out: LC50
Description: Cytotoxicity against human MALME-3M cells after 48 hrs by sulforhodamine B assay

[23] = Cytotoxicity against human NCI-ADR-RES cells after 48 hrs by sulforhodamine B assay; format: functional; settings: for CC50: read-out: LC50 (the source's name)
[24] = cells; settings: Homo sapiens, HCT-15, 48 h; for CC50: read-out: LC50
Description: Cytotoxicity against human HCT15 cells after 48 hrs by sulforhodamine B assay

[25] = test system: CCRF-CEM; assay: cells; settings: Homo sapiens, 48 h; for CC50: read-out: LC50
Description: Cytotoxicity against human CCRF-CEM cells after 48 hrs by sulforhodamine B assay

[26] = cells; settings: Homo sapiens, HCT-116, 48 h; for CC50: read-out: LC50
Description: Cytotoxicity against human HCT116 cells after 48 hrs by sulforhodamine B assay

[27] = cells; settings: Homo sapiens, OVCAR-8, 48 h
Description: Cytotoxicity against human OVCAR8 cells after 48 hrs by sulforhodamine B assay

[28] = cells; settings: Homo sapiens, PC-3, 48 h; for CC50: read-out: LC50
Description: Cytotoxicity against human PC3 cells after 48 hrs by sulforhodamine B assay

[29] = cells; settings: Homo sapiens, OVCAR-5, 48 h; for CC50: read-out: LC50
Description: Cytotoxicity against human OVCAR5 cells after 48 hrs by sulforhodamine B assay

[30] = test system: KM12; assay: cells; settings: Homo sapiens, KM12, 48 h
Description: Cytotoxicity against human KM12 cells after 48 hrs by sulforhodamine B assay

[31] = cells; settings: Homo sapiens, TK-10, 48 h; for CC50: read-out: LC50
Description: Cytotoxicity against human TK10 cells after 48 hrs by sulforhodamine B assay

[32] = test system: ACHN; assay: cells; settings: Homo sapiens, 48 h; for CC50: read-out: LC50
Description: Cytotoxicity against human ACHN cells after 48 hrs by sulforhodamine B assay

[33] = cells; settings: Homo sapiens, CAKI-1, 48 h; for CC50: read-out: LC50
Description: Cytotoxicity against human Caki1 cells after 48 hrs by sulforhodamine B assay

[34] = cells; settings: Homo sapiens, LOX IMVI, 48 h; for CC50: read-out: LC50
Description: Cytotoxicity against human LOXIMVI cells after 48 hrs by sulforhodamine B assay

[35] = test system: MDA-MB-468; assay: cells; settings: Homo sapiens, MDA-MB-468, 48 h; for CC50: read-out: LC50
Description: Cytotoxicity against human MDA-MB-468 cells after 48 hrs by sulforhodamine B assay

[36] = Cytotoxicity against human Hs 578T cells after 48 hrs by sulforhodamine B assay; format: functional; settings: for CC50: read-out: LC50 (the source's name)
[37] = test system: SK-MEL-28; assay: cells; settings: Homo sapiens, SK-MEL-28, 48 h; for CC50: read-out: LC50
Description: Cytotoxicity against human SK-MEL-28 cells after 48 hrs by sulforhodamine B assay

## COc1cc(/C=C2\C(=O)Nc3ccccc32)cc(OC)c1O
[1]
  GI50: 2000 nM
  TGI: 5 µM
  CC50: 22.3 µM
[2]
  GI50: 4.9 µM
  TGI: 47.8 µM
  CC50: > 100 µM
[3]
  GI50: 3000 nM
  TGI: 30.9 µM
  CC50: > 100 µM
[4]
  GI50: 5 µM
  TGI: 33.8 µM
  CC50: > 100 µM
[5]
  GI50: 1500 nM
  TGI: 16.9 µM
  CC50: > 100 µM
[6]
  GI50: 2500 nM
  TGI: 8.3 µM
  CC50: 30.9 µM
[7]
  GI50: 3700 nM
  TGI: 20.4 µM
  CC50: 85.1 µM
[8]
  GI50: 700 nM
  TGI: 15.1 µM
[8]; read-out: LC50
  CC50: > 100 µM
[9]
  GI50: 3200 nM
  TGI: 13.2 µM
  CC50: 36.7 µM
[10]
  GI50: 2600 nM
  TGI: 19.9 µM
  CC50: > 100 µM
[11]
  GI50: 2800 nM
  TGI: 11.2 µM
  CC50: > 100 µM
[12]
  GI50: 2400 nM
  TGI: 14.1 µM
  CC50: 42.6 µM
[13]
  GI50: 2100 nM
  TGI: > 100 µM
  CC50: > 100 µM
[14]
  GI50: 9.1 µM
  TGI: 30.9 µM
  CC50: > 100 µM
[15]
  GI50: 5.4 µM
  TGI: 46.7 µM
  CC50: > 100 µM
[16]
  GI50: 3900 nM
  TGI: 21.3 µM
  CC50: > 100 µM
[17]
  GI50: 3600 nM
  TGI: 23.4 µM
  CC50: > 100 µM
[18]
  GI50: 3.8 µM
  TGI: 93.3 µM
  CC50: > 100 µM
[19]
  GI50: 12.3 µM
  TGI: 26.9 µM
[19]; read-out: LC50
  CC50: 58.8 µM
[20]
  GI50: 3100 nM
  TGI: 20.8 µM
  CC50: > 100 µM
[21]
  GI50: 3500 nM
  TGI: 85.1 µM
[21]; read-out: LC50
  CC50: > 100 µM
[22]
  GI50: 2900 nM
  TGI: 21.8 µM
  CC50: > 100 µM
[23]
  GI50: 2.5 µM
  TGI: 7.5 µM
  CC50: > 100 µM
[24]
  GI50: 3200 nM
  TGI: 15.1 µM
  CC50: 64.5 µM
[25]
  GI50: 5.1 µM
  TGI: > 100 µM
  CC50: > 100 µM
[26]
  GI50: 3300 nM
  TGI: 13.4 µM
  CC50: 37.1 µM
[27]
  GI50: 5 µM
  TGI: 29.5 µM
[27]; read-out: LC50
  CC50: > 100 µM
[28]
  GI50: 20.8 µM
  TGI: > 100000 nM
  CC50: > 100 µM
[29]
  GI50: 4.7 µM
  TGI: 18.6 µM
  CC50: 52.4 µM
[30]
  GI50: 2500 nM
  TGI: 11.5 µM
[30]; read-out: LC50
  CC50: 36.3 µM
[31]
  GI50: 7.1 µM
  TGI: 37.1 µM
  CC50: > 100 µM
[32]
  GI50: 4.7 µM
  TGI: 22.3 µM
  CC50: 83.2 µM
[33]
  GI50: 2900 nM
  TGI: 25.1 µM
  CC50: > 100 µM
[34]
  GI50: 4000 nM
  TGI: 16.2 µM
  CC50: 44.6 µM
[35]
  GI50: 1500 nM
  TGI: 7.7 µM
  CC50: 63.1 µM
[36]
  GI50: 1800 nM
  TGI: 6.1 µM
  CC50: > 100 µM
[37]
  GI50: 5 µM
  TGI: 22.9 µM
  CC50: 83.2 µM

## O=C1Nc2ccccc2/C1=C/c1cn(CC(O)Cn2cc(/C=C3\C(=O)Nc4ccccc43)c3ccccc32)c2ccccc12 (stereo unspecified)
[1]
  GI50: 1600 nM
  TGI: 3.3 µM
  CC50: 6.6 µM
[2]
  GI50: 1.8 µM
  TGI: 3.7 µM
  CC50: 7.8 µM
[3]
  GI50: 1600 nM
  TGI: 3.2 µM
  CC50: 6.4 µM
[4]
  GI50: 1.5 µM
  TGI: 3.3 µM
  CC50: 7.2 µM
[5]
  GI50: 390 nM
  CC50: > 100 µM
[6]
  GI50: 2040 nM
  TGI: 3.7 µM
  CC50: 6.9 µM
[7]
  GI50: 470 nM
  TGI: 1.9 µM
  CC50: 5.3 µM
[8]
  GI50: 450 nM
  TGI: 1.8 µM
[9]
  GI50: 1300 nM
  TGI: 3.4 µM
  CC50: 9.04 µM
[10]
  GI50: 1200 nM
  TGI: 2.9 µM
  CC50: 6.7 µM
[11]
  GI50: 2900 nM
  TGI: 10.9 µM
  CC50: 57.5 µM
[12]
  GI50: 1500 nM
  TGI: 2.9 µM
  CC50: 5.6 µM
[13]
  GI50: 1200 nM
  TGI: 3.5 µM
  CC50: > 100 µM
[14]
  GI50: 1.4 µM
  TGI: 3.5 µM
  CC50: 8.7 µM
[15]
  GI50: 1.5 µM
  TGI: 2.9 µM
  CC50: 5.6 µM
[16]
  GI50: 1600 nM
  TGI: 3.6 µM
  CC50: 8.1 µM
[17]
  GI50: 1500 nM
  TGI: 3.1 µM
  CC50: 6.5 µM
[18]
  GI50: 2.5 µM
  TGI: 7.4 µM
  CC50: > 100 µM
[19]
  GI50: 1.6 µM
  TGI: 3.6 µM
[20]
  GI50: 1200 nM
  TGI: 2.7 µM
  CC50: 5.7 µM
[21]
  GI50: 1600 nM
  TGI: 3.8 µM
[22]
  GI50: 1500 nM
  TGI: 3.2 µM
  CC50: 7.1 µM
[23]
  GI50: 12 µM
  TGI: 54.5 µM
  CC50: > 100 µM
[24]
  GI50: 1700 nM
  TGI: 3.7 µM
  CC50: 7.7 µM
[25]
  GI50: 2.8 µM
  TGI: 13.4 µM
  CC50: > 100 µM
[26]
  GI50: 1600 nM
  TGI: 4.1 µM
  CC50: 12.5 µM
[27]
  GI50: 2.3 µM
  TGI: 4.7 µM
[28]
  GI50: 1.2 µM
  TGI: 2600 nM
  CC50: 5.8 µM
[29]
  GI50: 3.4 µM
  TGI: 4.5 µM
  CC50: 43.6 µM
[30]
  GI50: 1400 nM
  TGI: 3.3 µM
[31]
  GI50: 2.7 µM
  TGI: 5.4 µM
  CC50: 14.4 µM
[32]
  GI50: 1.6 µM
  TGI: 3.9 µM
  CC50: 9.3 µM
[33]
  GI50: 1600 nM
  TGI: 3.3 µM
  CC50: 7.1 µM
[34]
  GI50: 320 nM
  TGI: 1.3 µM
  CC50: 4.1 µM
[35]
  GI50: 2030 nM
  TGI: 3.7 µM
  CC50: 6.9 µM
[36]
  GI50: 2400 nM
  TGI: 7.8 µM
  CC50: > 100 µM
[37]
  GI50: 1.7 µM
  TGI: 3.5 µM
  CC50: 6.9 µM
